Measured values reported in patent US10555936B2, “Chemotherapeutic compositions and methods for treating human gliomas” (The Methodist Hospital, priority 2011, dated 2020).

Key:
[1] = test system: MAO-B; conditions: previously-published work; cited from earlier work
[2] = test system: BT-111; assay: Total cell protein mass, BCA/SDS method; type: cell-based, human; conditions: BT-111, with 2 μM selegiline, 24 hr
[3] = test system: BT-115; assay: Total cell protein mass, BCA/SDS method; type: cell-based, human; conditions: BT-115, with 2 μM selegiline, 24 hr
[4] = test system: BT-111; assay: Cell death, Hoechst viability stain; type: cell-based, human; conditions: BT-111, high concentrations, 2 μM selegiline, 24 hrs
[5] = test system: BT-115; assay: Cell death, Hoechst viability stain; type: cell-based, human; conditions: BT-115, high concentrations, 2 μM selegiline, 24 hrs
[6] = target: T1, hMAO-A (Homo sapiens, UniProt P21397); conditions: Fierro and co-workers; cited from earlier work
T1 sequence (P21397 1-527): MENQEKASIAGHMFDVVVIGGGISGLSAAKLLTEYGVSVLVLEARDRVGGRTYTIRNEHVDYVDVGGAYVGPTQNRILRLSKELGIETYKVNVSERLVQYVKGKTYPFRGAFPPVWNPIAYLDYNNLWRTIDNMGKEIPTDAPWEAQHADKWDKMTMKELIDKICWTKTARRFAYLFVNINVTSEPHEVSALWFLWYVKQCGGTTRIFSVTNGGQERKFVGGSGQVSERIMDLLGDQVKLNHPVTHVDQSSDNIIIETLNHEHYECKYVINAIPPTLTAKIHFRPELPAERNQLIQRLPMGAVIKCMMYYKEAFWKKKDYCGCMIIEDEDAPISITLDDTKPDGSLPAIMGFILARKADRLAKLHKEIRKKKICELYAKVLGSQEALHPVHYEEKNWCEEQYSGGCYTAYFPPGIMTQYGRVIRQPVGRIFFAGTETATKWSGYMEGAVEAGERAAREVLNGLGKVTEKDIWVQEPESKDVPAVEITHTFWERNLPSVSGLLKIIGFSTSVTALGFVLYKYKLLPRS

[7] = test system: BT-111 cells; type: cell-based, human

Q: Which MAO-B substrate quality [1] does the source give for “1-methyl-4-(3-methylfuran-yl)-1,2,3,6-tetrahydropyridine” here?
A: The MAO-B substrate quality was “excellent MAO-B substrates”.

Q: Which MAO-B substrate quality [1] does the source give for `CN1CC=C(C2CCCCC2)CC1` [4-cyclohexyl-1-methyl-1,2,3,6-tetrahydropyridine] here?
A: The MAO-B substrate quality was “excellent MAO-B substrates”.

Q: What does the source list for `CCc1c2c(nc3ccc(OCCCN)cc13)-c1cc3c(c(=O)n1C2)COC(=O)[C@]3(O)CC` [APE-SN38, 7-ethyl-10-(3-aminprop)-oxy-camptothecine]?
A: protection by selegiline [2]: almost complete protection; protection by selegiline [3]: almost complete protection; cell death on co-incubation with selegiline [4]: could be arrested; cell death on co-incubation with selegiline [5]: could be arrested

Q: For `CSc1ccc(CC(C)N)cc1` (centres unmarked) [MTA], which “times better at inhibiting hMAO-A than hMAO-B” value [6] is on record?
A: The value was > 1000 times.

Q: Which “effect on mitochondrial membrane potential” value [7] does the source give for `C#CCN(C)[C@H](C)Cc1ccccc1` [Selegiline] here?
A: Its value is “no effect”.
